This note sets out measurements from patent US9161533B2, “Plant pathogen resistance” (priority 2007, dated 2015).

Type in all cases: in vivo, Arabidopsis
The subject of one data set is virulent PmaDG3. Kind of data set: Azelaic acid-induced resistance against virulent PmaDG3 infection. Here is the method: (§1) (A) Local and systemic resistance response by azelaic acid treatment against virulent PmaDG3 infections. Local or systemic leaves of 21˜23-day-old plants were treated with 5 mM MES (pH 5.6) (black bars) or 1 mM azelaic acid in 5 mM MES (pH 5.6, white bars) 2 days prior to challenge with the virulent PmaDG3 strain (OD600=0.0001). MES and azelaic acid were introduced into leaves by syringe-infiltration. […] (B) Growth of avirulent strains PmaDG6 (PmaDG3 carrying avrRpt2) and PmaDG34 (PmaDG3 carrying avrRpm1) in leaves of Col pretreated with 5 mM MES (black bars) or 1 mM azelaic acid in 5 mM MES (pH 5.6, white bars). (C) Twenty three-day-old plants were pretreated with 1, 10, 100, and 1000 μM azelaic acid in 5 mM MES or 5 mM MES for 2 days and then subjected to infection with virulent PmaDG3 at OD600=0.0001. […] (D) Plants were treated with 5 mM MES or 1 mM azelaic acid for the indicated times prior to inoculation with virulent PmaDG3. Inoculations with PmaDG3 were performed between noon and 1 pm. Azelaic acid (Aza) in 5 mM MES was applied to plants using a hand-sprayer. The growth of bacteria was measured on day 3 after inoculation. […] (E) Plants were treated and infected as in (D), except that infections were performed between […]. (*p<0.04). These experiments were repeated two to four times to confirm reproducibility.
1 mM azelaic acid in 5 mM MES was applied to wild-type Col, SAR-defective, and SA-deficient mutants (A) and jasmonic acid/ethylene-insensitive mutants (B) 2 days prior to challenge-inoculation of virulent PmaDG3 (OD600=0.0001). […] The experiments were repeated a minimum of three times. The number of asterisks indicates samples that were different from one another at given levels of statistical significance (*p<0.05, **p<0.01).
(§2) Biological activity of azelaic acid in inducing disease resistance. 1 mM azelaic acid was infiltrated into leaves 3 and 4 of 3-week old plants. Two days later, plants were inoculated with virulent PmaDG3 onto leaves 3 and 4 or in the upper leaves, which were not pre-treated with azelaic acid (systemic leaves). Azelaic acid (1 mM) dissolved in 5 mM MES (pH 5.6) was not toxic to plant cell. […] Mock-treated and azelaic acid-treated plants were also infiltrated with avirulent derivatives of P. syringae pv. maculicola carrying avrRpt2 (PmaDG6) or avrRpm1 (PmaDG34).
PmaDG3 growth was measured after spray treatment of plants with various concentrations of azelaic acid. […] It was also tested whether azelaic acid required a certain induction period for the induced resistance response. […] However, when plants were grown in the dark for 12 hours after treatment, azelaic acid was ineffective at conferring disease resistance (FIG. 3E). […] Thus, azelaic acid induces a light-dependent disease resistance response against infection with P. syringae that is also concentration- and time-dependent.
To further characterize how plants regulate azelaic acid-induced resistance, 1 mM azelaic acid was sprayed onto wild type and several mutant plants 2 days before infection with virulent PmaDG3 and bacterial growth was measured. Unlike wild-type plants, the SA pathway mutants tested were susceptible to virulent PmaDG3 infection regardless of treatment with azelaic acid (FIG. 4A). […] Pathogen resistance was also dependent on […], which is important for SA-induced disease resistance and SAR maintenance in Arabidopsis. The growth of bacteria was also monitored in leaves of JA- and ethylene-insensitive mutants, jar1 and etr1, following treatment with 1 mM azelaic acid.

Data set [1] deals with PmaDG6 (PmaDG3 carrying avrRpt2). Kind of data set: Growth of avirulent PmaDG6 in azelaic acid-pretreated leaves. The conditions noted are these: 1 mM pretreatment. As to the method: as §1
Biological activity of azelaic acid in inducing disease resistance. […]

For a further data set, the system named is plant cell. Kind of data set: Toxicity of azelaic acid to plant cell. The conditions noted are these: 1 mM in 5 mM MES (pH 5.6). Here is the method:
as §2

Data set [2] relates to salicylic acid and camalexin levels. Kind of data set: Endogenous salicylic acid and camalexin levels after azelaic acid spray. The settings on record: 1 mM spray, no infection, vs mock. Here is the method:
(§3) (A) Time course of free and total salicylic acid levels in leaves of Col after spray treatments with 5 mM MES (black bars) and 1 mM azelaic acid in 5 mM MES (white bars). (B) Camalexin levels in leaves of Col after azelaic acid treatment by spraying. Each experiment in (A) and (B) was performed with three different samples and the experiments were repeated three times. (C) Expression of an LTP gene (At2g38530) was elevated after azelaic acid treatment performed as in (A), however expression of PR1 and many other defense-related genes was unaffected. RT-PCR (23 cycles) was used to assess gene expression, with EF1a serving as a loading control.
Since resistance to P. syringae requires activation of SA-dependent defenses accompanied by elevated endogenous SA levels, it was investigated whether azelaic acid directly induces SA accumulation. […] Additionally, the levels of the phytoalexin Camalexin, a defense metabolite, were similar in azelaic acid-treated and mock-treated plants (FIG. 5B). […] To investigate whether azelaic acid might affect additional defense markers, expression of defense-related genes was monitored using a mini array. […] RT-PCR confirmed that At2g38530 was induced by azelaic acid. However, PR1, a SA signaling marker, was not induced by azelaic acid. […]

A further data set relates to defense-related genes. Kind of data set: Defense-related gene expression after azelaic acid treatment (mini array, RT-PCR). As to the method: as §3
Since resistance to P. syringae requires activation of SA-dependent defenses accompanied by elevated endogenous SA levels, it was investigated whether azelaic acid directly induces SA accumulation. […] Additionally, the levels of the phytoalexin Camalexin, a defense metabolite, were similar in azelaic acid-treated and mock-treated plants (FIG. 5B). […] To investigate whether azelaic acid might affect additional defense markers, expression of defense-related genes was monitored using a mini array. […] RT-PCR confirmed that At2g38530 was induced by azelaic acid. However, PR1, a SA signaling marker, was not induced by azelaic acid. Thus, azelaic acid appears not to induce large changes in known signaling pathways activated by P. syrinagae, but does induce at least one defense-related gene.

Data set [3] concerns SA-dependent defense signaling. Kind of data set: Priming of SA accumulation after Pseudomonas syringae infection. As to the method: (§4) Five mM MES or 1 mM azelaic acid in 5 mM MES were applied to leaves of wild-type Col Arabidopsis 2 days prior to inoculation of 10 mM MgSO4 (M), virulent PmaDG3 (V) and avirulent PmaDG6 expressing AvrRpt2 (Av). Leaves were collected at different times after inoculation and endogenous free and total SA level was measured. (B) Relative PR1 expression in leaves of mock-treated plants and azelaic acid-treated plants after virulent PmaDG3 infection. The expression of PR1 is plotted on a log scale. The number of asterisks indicates samples that were different from one another at given levels of statistical significance (*p<0.075, **p<0.05, ***p<0.01).
(§5) Since SA signaling mutants were compromised in responding to azelaic acid, it was investigated whether azelaic acid might prime SA synthesis or SA-dependent defense responses in plants. To test this, plants were sprayed with 1 mM azelaic acid (or 5 mM MES) and after two days infected with virulent PmaDG3 and avirulent PmaDG6 (carrying avrRpt2) (OD600=0.01). […] The priming effect by azelaic acid was also investigated by analyzing PR1 expression, a molecular marker for SA signaling (FIG. 6B). Mock- and azelaic acid-treated plants were infected with virulent PmaDG3 (OD600=0.01) 2 days after spray treatments. PR1 expression was increased in both azelaic acid treated and untreated plants after infection with the virulent strain. However, the expression was higher in leaves pretreated with azelaic acid after pathogen infection, compared with expression in mock-treated plants following pathogen infection (note the log scale in FIG. 6B).

A further data set relates to PR1 expression. Kind of data set: Priming of PR1 expression after virulent PmaDG3 infection. The settings on record: 1 mM spray 2 days before PmaDG3 (OD600=0.01); vs mock. Here is the method:
as §4
as §5, with “However, the expression was higher in leaves pretreated with azelaic acid after pathogen infection, compared with expression in mock-treated plants following pathogen infection (note the log scale in FIG. 6B).” left out

Entries after “also recorded” stand apart in the source; their conditions may differ.

For `O=C(O)CCCCCCCC(=O)O` [azelaic acid], in the data set with virulent PmaDG3 (1 mM hand sprayer, light), the “resistance, pretreatment 12 hours prior to pathogen challenge” value was “low level of resistance”. Further, the “resistance, pretreatment 6 hours prior to infection” value in the data set with virulent PmaDG3 (1 mM hand sprayer, plants grown in the light) was “still susceptible”. Further, in the data set on virulent PmaDG3 (1 mM infiltrated 2 days before PmaDG3 challenge), the disease symptoms result is listed as “significant reduction in the disease symptoms; also recorded: very little disease symptom development”. In addition, the “growth of PmaDG3” value in the data set with virulent PmaDG3 (1 mM infiltrated 2 days before challenge, local and systemic leaves) was “reduction in pathogen growth; also recorded: significantly reduced”. In addition, the “protection, inoculation 48 h after spraying” value in the data set with virulent PmaDG3 (1 mM spray) is given as “Significant protection”. Besides, the “disease resistance, plants in the dark for 12 hours after treatment” value with virulent PmaDG3 (1 mM spray, dark) is listed as “ineffective”. Besides, in the data set with virulent PmaDG3 (1 mM sprayed 2 days before infection), the “resistance to PmaDG3 in SAR-defective / SA pathway mutants” value is “did not induce plant resistance; also recorded: susceptible”. Further, the “resistance in jar1 and etr1 mutants” value in the data set with virulent PmaDG3 (1 mM, JA- and ethylene-insensitive mutants) is reported as “did not affect; also recorded: effective in restricting bacterial growth”. Moreover, the bacterial growth entry with virulent PmaDG3 (1 or 10 μM vs 5 mM MES) was “no difference in bacterial growth”. In addition, the “suppression of bacteria growth” value in the data set with virulent PmaDG3 (100 and 1000 μM pretreatment) came to 10 fold. For the same compound, the “resistance to PmaDG3 / growth of bacteria” value in the data set on virulent PmaDG3 (100 and 1000 μM pretreatment for 2 days) is recorded as “significant reduction of the growth of bacteria; also recorded: resistant to PmaDG3”. Besides, in data set [1], the “growth of PmaDG6” value is given as “reduction in the growth”. In addition, the “toxicity to plant cell” value in the data set on plant cell is recorded as “not toxic”. Moreover, in data set [2], the Camalexin levels entry was “does not affect; also recorded: similar”; the “free and total SA level” value is given as “does not affect; also recorded: no significant difference”. The “At2g38530 expression by RT-PCR” value with defense-related genes (RT-PCR) was “elevated; also recorded: induced”. For the same compound, the PR1 expression result with defense-related genes (azelaic acid alone, no infection) is listed as “unaffected; also recorded: not induced”. The “induction of LTP gene At2g38530” value in the data set with defense-related genes (mini array) worked out at 3 fold. Moreover, the “expression of most defense-related genes” value in the data set with defense-related genes (mini array, vs mock) was “unaffected; also recorded: no difference in expression”. Moreover, in data set [3] (1 mM spray 2 days before, 6 and 18 hrs after virulent PmaDG3 infection, vs mock, p<0.05), the “levels of free SA” value is reported as “significantly higher”. Moreover, the “total SA accumulation” value in data set [3] (18 hrs after inoculation with both PmaDG3 and PmaDG6, vs mock, p<0.01) is recorded as “higher level”. In data set [3] (after infection with PmaDG6 (carrying avrRpt2)), the “levels of free SA” value was “not statistically significant”. For the same compound, the “Endogenous free and total SA levels during Pseudomonas syringae infections” value in data set [3] (vs mock-treated plants) was “significantly higher”. In addition, the “PR1 expression after pathogen infection” value with PR1 expression is given as “higher”.
